Laboratory results as given in US20240216272A1, “PHARMACEUTICAL PREPARATION” (KOWA COMPANY, LTD., priority 2014, published 2024).

What was measured:
Type in all cases: physicochemical
[1] = Test Example 2: photostability of ripasudil in an aqueous composition; settings: D65 lamp; for Analogs (%): aqueous composition 0.4 g/100 mL as free form, pH 6.0, transparent polypropylene container, 25° C.
Experimental: (§1) In the following test examples, ripasudil monohydrochloride dihydrate can be produced in accordance with the method described in WO2006/057397, for example. Moreover, in the following test examples, measurement of ripasudil and its analogs using HPLC was performed using an ODS column as the column, 0.01 mol/L phosphate buffer and acetonitrile as the mobile phase, and an ultraviolet absorptiometer (wavelength: 280 nm) as the detector.
The stability of ripasudil incorporated in an aqueous composition with respect to light was evaluated by examining the presence or absence of degradation products formed by exposure to light, as in Test Example 1.
Specifically, an aqueous composition containing, per 100 mL, 0.4896 g of ripasudil monohydrochloride dihydrate (0.4 g, as the free form of ripasudil), 0.4 g of anhydrous sodium dihydrogen phosphate, 2.136 g of glycerin, 0.002 g of benzalkonium chloride, an appropriate amount of sodium hydroxide (pH 6.0), and sterile purified water (balance) was prepared, and this aqueous composition was stored in a transparent container made of polypropylene. The aqueous composition was then irradiated with 4000 lux of light to give a cumulative radiation dose of 300,000, 600,000, or 1,200,000 lux·hr, at 25° C., with a D65 fluorescent lamp as the light source, using a photostability tester (LT-120A: Nagano Science Corporation).
To examine the presence or absence of photodegradation products of ripasudil, the presence or absence of an increase in the amount of ripasudil analogs was evaluated. The amount of analogs was evaluated as the area percentage (%) relative to the total peak area derived from ripasudil and its analogs, using HPLC.

[2] = Test Example 1: photostability of ripasudil (powder), analogs by HPLC; settings: for Analogs (%): powder in glass petri dish, D65 fluorescent lamp 4000 lux, 25° C.
Experimental: as §1
The stability of ripasudil with respect to light was evaluated by examining the presence or absence of degradation products formed by exposure to light.
Specifically, powdery ripasudil monohydrochloride dihydrate was spread in a glass petri dish to a thickness of 3 mm or less, and then irradiated with 4000 lux of light to give a cumulative radiation dose of 400,000, 800,000, or 1,200, 000 lux·hr, at 25° C., with a D65 fluorescent lamp as the light source, using a photostability tester (LT-120A: Nagano Science Corporation).
To examine the presence or absence of photodegradation products of ripasudil, the presence or absence of an increase in the amount of ripasudil analogs was evaluated for the sample before and after exposure to light. The amount of analogs was evaluated as the ratio (%) of the peak area of analogs relative to the peak area of ripasudil, using HPLC.

[3] = Test Example 7: Preservation Test No. 1, color difference (ΔYI) at 60° C.; settings: for ΔYI: aqueous composition of Table 7 (phosphate, pH 6.7), 60° C. for 3 months; for Evaluation (ΔYI): aqueous composition of Table 7, 60° C. for 3 months
Experimental: An aqueous composition of the formulation shown in Table 7 was prepared in accordance with a conventional method, and then placed in a container made of polyethylene (PE), polypropylene (PP), or polyvinyl chloride (PVC) to produce a pharmaceutical preparation. Each of the resulting pharmaceutical preparations was preserved at 60° C. for 3 months, and a color difference (ΔYI) before and after the preservation was measured using a color difference meter (spectrophotometer, CM-700d: Konica Minolta Sensing, Inc.). A ΔYI value of 5 or more was rated as “b”, and a ΔYI value of less than 5 was rated as “a”. [table]

[4] = Test Example 8: Preservation Test No. 2, color difference (ΔYI) at 60° C.; settings: for ΔYI: aqueous composition of Table 9 (boric acid, pH 6.7), 60° C. for 3 months; for Evaluation (ΔYI): aqueous composition of Table 9, 60° C. for 3 months
Experimental: An aqueous composition of the formulation shown in Table 9 was prepared in accordance with a conventional method, and then placed in a container made of polyethylene (PE) or polypropylene (PP) to produce a pharmaceutical preparation. Each of the resulting pharmaceutical preparations was preserved at 60° C. for 3 months, and a color difference (ΔYI) before and after the preservation was measured using a color difference meter (spectrophotometer, CM-700d: Konica Minolta Sensing, Inc.). A ΔYI value of 5 or more was rated as “b”, and a ΔYI value of less than 5 was rated as “a”. [table]

In the case of `C[C@H]1CNCCCN1S(=O)(=O)c1cccc2cncc(F)c12` [ripasudil, 4-fluoro-5-[[(2S)-2-methyl-1,4-diazepan-1-yl]sulfonyl]isoquinoline], the “Analogs (%)” value ([1]; 300,000 lux·hr) is reported as 1.29%, the “Analogs (%)” value ([1]; 600,000 lux·hr) is reported as 1.95% and the “Analogs (%)” value ([1]; 1,200,000 lux·hr) is reported as 3.67%. The “Analogs (%)” value ([1]; before exposure to light) was 0.17%, the “formation of degradation products due to exposure to light” value ([1]; aqueous composition, transparent polypropylene container, in words) was “degradation products due to exposure to light are formed” and the “Analogs (%)” value ([2]; before exposure to light) was 0.11%. For the same molecule, the “Analogs (%)” value ([2]; cumulative radiation dose 400,000 lux·hr) was 0.14%, the “Analogs (%)” value ([2]; cumulative radiation dose 800,000 lux·hr) was 0.16% and the “Analogs (%)” value ([2]; cumulative radiation dose 1,200,000 lux·hr) was 0.16%. For the same molecule, the “formation of photodegradation products” value ([2]; powder, up to 1,200,000 lux·hr, in words) was “no formation of photodegradation products was observed”, the ΔYI ([3]; container PE) was 4.07 and the ΔYI ([3]; container PP) was 4.42. The ΔYI ([3]; container PVC) was 7.45, the “Evaluation (ΔYI)” value ([3]; container PE) was “a (a ΔYI value of less than 5 was rated as “a”)” and the “Evaluation (ΔYI)” value ([3]; container PP) was “a (a ΔYI value of less than 5 was rated as “a”)”. The “Evaluation (ΔYI)” value ([3]; container PVC) was “b (A ΔYI value of 5 or more was rated as “b”)”, the ΔYI ([4]; container PE) was 4.15 and the ΔYI ([4]; container PP) was 4.64. For the same molecule, the “Evaluation (ΔYI)” value ([4]; container PE) was “a (a ΔYI value of less than 5 was rated as “a”)” and the “Evaluation (ΔYI)” value ([4]; container PP) was “a (a ΔYI value of less than 5 was rated as “a”)”.
